From patent US20190225650A1, “PEPTIDOMIMETIC MACROCYCLES AND USE THEREOF IN REGULATING HIF1ALPHA” (AILERON THERAPEUTICS, INC., priority 2013, published 2019)
Bridge positions count the residues as written; N and C are the ends. Square brackets hold non-standard residues; d marks the D form. Peptide text beside a SMILES is read from it. R8 = C=CCCCCCC[C@@](C)(N)C(=O)O; S5 = C=CCCC[C@](C)(N)C(=O)O; Nle = CCCC[C@H](N)C(=O)O

How the values were obtained:
[1] = test system: HRE-bla ME-180 cells; assay: Reporter gene assay (HRE-bla ME-180 HIF reporter, GeneBLAzer); type: cell-based, human; details: for EC50: 24 hour normoxia
How it was run: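 A FRET β-lactamase readout of HIF transcription was used. After compound treatment in 0.3% DMSO/media under normoxic conditions, 20 μl of 6× LiveBLAzer-FRET B/G (CCF4-AM) substrate was added. Plates sat 3 hr at room temperature in the dark and were read at 409 Ex/460Em and 409Ex/530Em on a Synergy 2. Inhibition was compared against DMSO vehicle controls, with chetomin as positive control.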

[2] = test system: HRE-bla ME-180 cells; assay: Cell proliferation assay (viability, MTT, 1% FBS); type: cell-based, human
Description: The human cervical cell line HRE-Bla ME-180 was obtained from Invitrogen. 2×10^4 ME-180 cells were plated in 96-well plates (costar) in Opti-MEM plus 1% FBS (Invitrogen). After 4 hr, cells were pretreated with chetomin, peptide or 0.5% DMSO (final concentration in media) vehicle control for 16 hr under normoxia (21% O2); then incubation continued under normoxia or hypoxia (1% O2) using a hypoxia incubator (Thermo Forma model). Viable cell numbers were quantified using CellTiter 96 Non-Radioactive Cell Proliferation kit (Promega, G4100). The results are presented in the column “Viability 1% FBS AVG (MTT V3-24 hr Normoxia) (μM)” of Table 6.

[3] = biological target: T1, flag-tagged HIF1α (AA 786-826) / His6-tagged p300 (AA 323-423) complex (Homo sapiens, UniProt Q09472); assay: HIF1α p300 displacement assay (TR FRET, +CHAPS); type: binding; details: read-out: IC50 (nM) (HIF1α_p300 Displacement + CHAPS)
T1 construct: His6-tagged p300 (AA 323-423); made in house; host or cells: E. coli (pETDuet vector)
How it was run: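 The co-expressed flag-HIF1α (786-826)/His6-p300 (323-423) complex, purified from E. coli with 0.1 mM ZnSO4, was used at 300 nM final with competitor peptides for 1 h at room temperature. Buffer was 150 mM NaCl, 20 mM HEPES pH 7.4, 7.5 mM CHAPS and 1 mM DTT. Anti-Flag-K (0.5 μM) and anti-His-D2 (4 nM) were then added for 2 h, and IC50s were fitted from the TR-FRET ratio.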

| SMILES | 18 h Avg % max inhibition at top conc (HIF Rptr-24 hrs normoxia) (μM) [1] | EC50 [1] | Viability 1% FBS AVG (MTT V3-24 hr Normoxia) (μM) [2] | IC50 [3] |
| --- | --- | --- | --- | --- |
| CCCC[C@H](NC(=O)[C@H](CCC(=O)O)NC(=O)[C@@H](NC(=O)[C@@H](NC(=O)[C@H](CC(C)C)NC(=O)[C@]1(C)CCCC=CCCC[C@](C)(NC(=O)[C@H](CCC(=O)O)NC(=O)[C@H](CC(=O)O)NC(=O)[C@@H](NC(=O)[C@H](CC(N)=O)NC(=O)[C@@H](NC(=O)[C@H](CCC(N)=O)NC(=O)[C@H](CC(=O)O)NC(=O)[C@H](CC(C)C)NC(=O)[C@H](C)NC(=O)[C@H](CCCNC(=N)N)NC(=O)[C@]2(C)CCCC=CCCC[C@](C)(NC(=O)[C@H](CCC(N)=O)NC(=O)[C@H](CC(C)C)NC(=O)[C@H](CC(C)C)NC(C)=O)C(=O)N[C@@H](CCC(=O)O)C(=O)N[C@@H](CCC(=O)O)C(=O)N[C@@H](CC(C)C)C(=O)N2)C(C)C)[C@@H](C)CC)C(=O)N[C@@H](C(C)C)C(=O)N[C@@H](CC(C)C)C(=O)N[C@@H](CCCC)C(=O)N1)C(C)C)[C@@H](C)CC)C(=O)NCC(N)=O [SP-325] (Ac-LLQ[S5]EEL[S5]RALDQVNIDE[S5]VL[Nle][S5]LVIE[Nle]G-NH2; staple 4-8, 19-23) | + (<10: +) | > 30 µM | ++++ (≥30: ++++) |  |
| CC[C@H](C)[C@H](NC(=O)[C@H](CC(N)=O)NC(=O)[C@@H](NC(=O)[C@H](CCC(N)=O)NC(=O)[C@H](CC(=O)O)NC(=O)[C@H](CC(C)C)NC(=O)[C@H](C)NC(=O)[C@H](CCCNC(=N)N)NC(=O)[C@H](CC(C)C)NC(=O)[C@H](CC(C)C)NC(=O)[C@H](CCC(=O)O)NC(=O)[C@H](CCC(=O)O)NC(=O)CNC(=O)[C@H](CCC(N)=O)NC(=O)[C@H](CC(C)C)NC(=O)[C@H](CC(C)C)NC(C)=O)C(C)C)C(=O)N[C@@H](CC(=O)O)C(=O)N[C@@H](CCC(=O)O)C(=O)N[C@@H](CCC(=O)O)C(=O)N[C@H](C(=O)N[C@@H](CC(C)C)C(=O)N[C@@H](CCSC)C(=O)N[C@@]1(C)CCCC=CCCC[C@@](C)(C(=O)N[C@@H](CCSC)C(N)=O)NC(=O)[C@H]([C@@H](C)CC)NC(=O)[C@H](C(C)C)NC(=O)[C@H](CC(C)C)NC1=O)C(C)C [SP-319] (Ac-LLQGEELLRALDQVNIDEEVLM[S5]LVI[S5]M-NH2; staple 23-27) | + (<10: +) | > 30 µM | ++++ (≥30: ++++) |  |
| CC[C@H](C)[C@H](NC(=O)[C@H](CCCNC(=N)N)NC(=O)[C@H](CC(=O)O)NC(=O)[C@H](CC(C)C)NC(=O)[C@H](C)NC(=O)[C@H](CCSC)NC(=O)[C@]1(C)CCCC=CCCC[C@](C)(NC(=O)[C@H](CCSC)NC(=O)[C@H](CC(C)C)NC(=O)[C@@H](NC(=O)[C@H](CCC(N)=O)NC(=O)[C@H](CCC(=O)O)NC(=O)[C@H](CC(=O)O)NC(=O)[C@@H](NC(=O)[C@H](Cc2ccccc2)NC(C)=O)[C@@H](C)CC)C(C)C)C(=O)N[C@@H](CC(C)C)C(=O)N[C@@H](C(C)C)C(=O)N[C@@H]([C@@H](C)CC)C(=O)N1)C(N)=O [SP-282] (Ac-FIDEQVLM[S5]LVI[S5]MALDRI-NH2; staple 9-13) | ++++ (≥50: ++++) | ≤ 5 µM | ++++ (≥30: ++++) |  |
| CC[C@H](C)[C@H](NC(=O)[C@H](CCCNC(=N)N)NC(=O)[C@H](CC(=O)O)NC(=O)[C@H](CC(C)C)NC(=O)[C@H](C)NC(=O)[C@H](CCSC)NC(=O)[C@]1(C)CCCC=CCCC[C@](C)(NC(=O)[C@H](CCSC)NC(=O)[C@H](Cc2ccccc2)NC(=O)[C@@H](NC(=O)[C@H](CCC(=O)O)NC(=O)[C@H](CCC(N)=O)NC(=O)[C@H](CC(=O)O)NC(=O)[C@@H](NC(=O)[C@H](Cc2ccccc2)NC(C)=O)[C@@H](C)CC)C(C)C)C(=O)N[C@@H](CC(C)C)C(=O)N[C@@H](C(C)C)C(=O)N[C@@H]([C@@H](C)CC)C(=O)N1)C(N)=O [SP-267] (Ac-FIDQEVFM[S5]LVI[S5]MALDRI-NH2; staple 9-13) | +++ (≤25 but <50: +++) | > 30 µM | ++++ (≥30: ++++) |  |
| CCCC[C@H](NC(=O)[C@]1(C)CCCC=CCCC[C@](C)(NC(=O)[C@H](CCCC)NC(=O)[C@H](CC(C)C)NC(=O)[C@@H](NC(=O)[C@H](CCC(=O)O)NC(=O)[C@H](CCC(=O)O)NC(=O)[C@H](CC(=O)O)NC(=O)[C@@H](NC(=O)[C@H](CC(N)=O)NC(=O)[C@@H](NC(=O)[C@]2(C)CCCC=CCCCCCC[C@@](C)(NC(=O)[C@H](CCC(=O)O)NC(=O)[C@H](C)NC(=O)[C@H](CCC(N)=O)NC(=O)[C@H](CC(C)C)NC(=O)[C@H](CC(C)C)NC(C)=O)C(=O)N[C@@H](CC(C)C)C(=O)N[C@@H](CC(C)C)C(=O)N[C@@H](CCCNC(=N)N)C(=O)N[C@@H](C)C(=O)N[C@@H](CC(C)C)C(=O)N[C@@H](CC(=O)O)C(=O)N2)C(C)C)[C@@H](C)CC)C(C)C)C(=O)N[C@@H](CC(C)C)C(=O)N[C@@H](C(C)C)C(=O)N[C@@H]([C@@H](C)CC)C(=O)N1)C(N)=O [SP-350] (Ac-LLQAE[R8]LLRALD[S5]VNIDEEVL[Nle][S5]LVI[S5][Nle]-NH2; staple 6-13, 23-27) | +++ (≤25 but <50: +++) | 5 to 15 µM | ++++ (≥30: ++++) |  |
| CC[C@H](C)[C@H](NC(=O)[C@H](Cc1ccccc1)NC(C)=O)C(=O)N[C@@H](CC(=O)O)C(=O)N[C@@H](CCC(=O)O)C(=O)N[C@@H](CO)C(=O)N[C@H](C(=O)N[C@@H](CC(C)C)C(=O)N[C@@H](CCSC)C(=O)N[C@@]1(C)CCCC=CCCC[C@@](C)(C(=O)N[C@@H](CCSC)C(=O)N[C@@H](C)C(=O)N[C@@H](CC(C)C)C(N)=O)NC(=O)[C@H]([C@@H](C)CC)NC(=O)[C@H](C(C)C)NC(=O)[C@H](CC(C)C)NC1=O)C(C)C [SP-238] (Ac-FIDESVLM[S5]LVI[S5]MAL-NH2; staple 9-13) | ++ (≤10 but <25: ++) | > 30 µM |  | 400 to 700 nM |
| CCCC[C@H](NC(=O)[C@H](CC(C)C)NC(=O)[C@@H](NC(=O)[C@H](CCC(=O)O)NC(=O)[C@H](CCC(=O)O)NC(=O)[C@H](CC(=O)O)NC(=O)[C@@H](NC(=O)[C@H](Cc1ccccc1)NC(C)=O)[C@@H](C)CC)C(C)C)C(=O)N[C@@]1(C)CCCC=CCCC[C@@](C)(C(=O)N[C@@H](CCCC)C(=O)N[C@@H](C)C(=O)N[C@@H](CC(C)C)C(N)=O)NC(=O)[C@H]([C@@H](C)CC)NC(=O)[C@H](C(C)C)NC(=O)[C@H](Cc2ccccc2)NC1=O [SP-219] (Ac-FIDEEVL[Nle][S5]FVI[S5][Nle]AL-NH2; staple 9-13) | ++ (≤10 but <25: ++) | > 30 µM |  | 400 to 700 nM |
| CCCC[C@H](NC(=O)[C@H](CC(C)C)NC(=O)[C@@H](NC(=O)[C@H](CCC(=O)O)NC(=O)[C@H](CCC(=O)O)NC(=O)[C@H](CC(=O)O)NC(=O)[C@@H](NC(=O)[C@H](Cc1ccccc1)NC(C)=O)[C@@H](C)CC)C(C)C)C(=O)N[C@@]1(C)CCCC=CCCC[C@@](C)(C(=O)N[C@@H](CCCC)C(=O)N[C@@H](C)C(=O)N[C@@H](CC(C)C)C(N)=O)NC(=O)[C@H]([C@@H](C)CC)NC(=O)[C@H](C(C)C)NC(=O)[C@H](CC(C)C)NC1=O [SP-8] (Ac-FIDEEVL[Nle][S5]LVI[S5][Nle]AL-NH2; staple 9-13) |  |  | ++++ (≥30: ++++) |  |
| CCCC[C@H](NC(=O)[C@H](CCC(=O)O)NC(=O)[C@@H](NC(=O)[C@@H](NC(=O)[C@H](CC(C)C)NC(=O)[C@]1(C)CCCC=CCCC[C@](C)(NC(=O)[C@H](CCC(=O)O)NC(=O)[C@H](C)NC(=O)[C@@H](NC(=O)[C@H](Cc2ccccc2)NC(C)=O)[C@@H](C)CC)C(=O)N[C@@H](C(C)C)C(=O)N[C@@H](CC(C)C)C(=O)N[C@@H](CCCC)C(=O)N1)C(C)C)[C@@H](C)CC)C(=O)N[C@@H](C)C(=O)N[C@@H](CC(C)C)C(=O)N[C@@H](CC(=O)O)C(=O)N[C@@H](C)C(=O)N[C@H](C(N)=O)[C@@H](C)CC [SP-120] (Ac-FIAE[S5]VL[Nle][S5]LVIE[Nle]ALDAI-NH2; staple 5-9) | + (<10: +) | > 30 µM |  | ≤ 200 nM |
| CCCC[C@H](NC(=O)[C@H](C)NC(=O)[C@]1(C)CCCC=CCCCCCC[C@@](C)(NC(=O)[C@H](CCC(=O)O)NC(=O)[C@H](C)NC(=O)[C@@H](NC(=O)[C@H](Cc2ccccc2)NC(C)=O)[C@@H](C)CC)C(=O)N[C@@H](C(C)C)C(=O)N[C@@H](CC(C)C)C(=O)N[C@@H](CCCC)C(=O)N[C@@H](CO)C(=O)N[C@@H](CC(C)C)C(=O)N[C@@H](C(C)C)C(=O)N1)C(=O)N[C@@H](C)C(=O)N[C@@H](CC(C)C)C(=O)N[C@@H](CC(=O)O)C(=O)N[C@@H](C)C(=O)N[C@H](C(N)=O)[C@@H](C)CC [SP-193] (Ac-FIAE[R8]VL[Nle]SLV[S5]A[Nle]ALDAI-NH2; staple 5-12) | + (<10: +) | > 30 µM |  | 400 to 700 nM |
